Laboratory results as given in PubChem BioAssay AID623999 (Broad Institute, 2012).
Results filed as inconclusive are left out. The source made the active and inactive calls.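 The calls were made as follows: active = inhibition in every test run, with half-maximal concentration at most twice the top tested dose; inconclusive = the separate test runs disagree on their calls; inactive = every test run inactive, including opposite effects.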

Biological target: Cyclin-dependent kinase 5 (Homo sapiens) + Cyclin-dependent kinase 5 activator 1 (Homo sapiens) (UniProt Q00535+Q15078)
Test: CDK5-p25 kinase inhibition, dose response, selectivity assay for GSK3beta inhibitor project, biochemical, ADP-Glo luminescence, dry powder samples (AID 623999)
Details: histone H1 peptide; for activity change, negative = inhibition: at 46 µM (top of the series)

Chain of Cyclin-dependent kinase 5 (Homo sapiens) + Cyclin-dependent kinase 5 activator 1 (Homo sapiens) (Q00535 whole entry, looked up): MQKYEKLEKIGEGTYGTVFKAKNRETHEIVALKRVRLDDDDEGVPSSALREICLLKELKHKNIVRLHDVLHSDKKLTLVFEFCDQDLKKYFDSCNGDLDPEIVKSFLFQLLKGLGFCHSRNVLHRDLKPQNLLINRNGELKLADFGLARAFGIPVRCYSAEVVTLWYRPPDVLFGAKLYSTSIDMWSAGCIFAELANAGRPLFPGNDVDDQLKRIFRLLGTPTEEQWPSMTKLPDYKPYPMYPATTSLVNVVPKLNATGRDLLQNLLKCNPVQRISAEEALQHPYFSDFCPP
Chain of Cyclin-dependent kinase 5 (Homo sapiens) + Cyclin-dependent kinase 5 activator 1 (Homo sapiens) (Q15078 whole entry, looked up): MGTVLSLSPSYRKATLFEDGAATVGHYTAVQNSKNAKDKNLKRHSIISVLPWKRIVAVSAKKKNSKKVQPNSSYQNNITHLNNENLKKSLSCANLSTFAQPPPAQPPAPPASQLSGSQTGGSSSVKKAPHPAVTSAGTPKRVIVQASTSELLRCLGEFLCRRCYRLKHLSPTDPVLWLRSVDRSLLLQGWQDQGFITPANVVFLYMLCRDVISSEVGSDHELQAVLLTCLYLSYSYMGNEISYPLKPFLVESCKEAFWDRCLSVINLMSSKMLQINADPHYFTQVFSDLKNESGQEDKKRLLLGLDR

| activity change, negative = inhibition | AC50 [µM] | SMILES |
| --- | --- | --- |
| inactive |  | CC1(C)CC(=O)/C(=C\c2ccccc2C(F)(F)F)C(=Nc2cc(C(F)(F)F)[nH]n2)C1 |
|  | 43 | CC1(C)CC(=O)C2=C(C1)Nc1n[nH]c(C(F)(F)F)c1C2c1c(F)cccc1F (centres undefined) |
|  | 2.22 | CCc1[nH]nc2c1C(c1ccccc1OC)C1=C(CC(C)(C)CC1=O)N2 (centres undefined) |
| inactive |  | COc1cccc(-c2nn(-c3ccccc3)cc2/C=N/O)c1 |
| inactive |  | COc1ccc(-c2nn(-c3ccccc3)cc2C(=O)N(C)C)cc1 |
|  | 47.2 | CC1(C)CC(=O)C2=C(C1)Nc1n[nH]c(C(F)(F)F)c1C2c1ccccc1F (centres undefined) |
| inactive |  | O/N=C/c1cn(-c2ccccc2)nc1-c1ccc(F)cc1 |
|  | 10.1 | COc1ccccc1C1C2=C(CCC(C)(C)C2=O)Nc2n[nH]c(C)c21 (centres undefined) |
|  | 32.6 | CC1(C)CC(=O)C2=C(C1)Nc1n[nH]c(C(F)(F)F)c1C2c1cc(F)ccc1OC(F)(F)F (centres undefined) |
|  | 25.4 | O/N=C/c1cn(-c2ccccc2)nc1-c1ccc(Cl)cc1 |
|  | 5.1 | Cc1[nH]nc2c1C(c1ccccc1Cl)C1=C(CC(C)(C)CC1=O)N2 (centres undefined) |
|  | 0.418 | O=S(=O)(Nc1ccccn1)c1ccc(N=Cc2c(O)[nH]c3ccc4ncsc4c23)cc1 |
|  | 22.4 | CC1(C)CC(=O)C2=C(C1)Nc1n[nH]c(C(F)(F)F)c1C2c1ccc(F)cc1C(F)(F)F (centres undefined) |
|  | 6.81 | Cc1[nH]nc2c1C(c1cccc(C#N)c1)C1=C(CC(C)(C)CC1=O)N2 (centres undefined) |
|  | 34.6 | COc1ccccc1-c1c2c(nc3n[nH]c(C)c13)CCC2=O |
|  | 14.5 | Cc1[nH]nc2c1C(C)(c1ccccc1)C1=C(CC(C)(C)CC1=O)N2 (centres undefined) |
|  | 10.9 | Cc1[nH]nc2c1C(c1cccc(C(F)(F)F)c1)C1=C(CC(C)(C)CC1=O)N2 (centres undefined) |
|  | 15.1 | COc1ccccc1C1C2=C(CCCC2=O)Nc2n[nH]c(C)c21 (centres undefined) |

More lines, now with the values behind:

| SMILES | activity change, negative = inhibition | AC50 [µM] |
| --- | --- | --- |
| CN(C)Cc1cn(-c2ccccc2)nc1-c1ccccc1 | inactive |  |
| COc1ccccc1/C=C1\C(=O)CC(C)(C)CC1=Nc1cc(C(F)(F)F)[nH]n1 | inactive |  |
| CC1(C)CC(=O)C2=C(C1)Nc1n[nH]c(C(F)(F)F)c1C2c1cc(F)ccc1C(F)(F)F (centres undefined) |  | 8.29 |
| CC1(C)CC(=O)C2=C(C1)Nc1n[nH]c(C(F)(F)F)c1C2c1cc(F)ccc1F (centres undefined) |  | 47.4 |
| CSc1ccccc1C1C2=C(CC(C)(C)CC2=O)Nc2n[nH]c(C)c21 (centres undefined) |  | 3.98 |
| Cc1[nH]nc2nc3c(cc12)C(=O)CC(C)(C)C3 | inactive |  |
| Cc1cccc(C2C3=C(CC(C)(C)CC3=O)Nc3n[nH]c(C)c32)c1 (centres undefined) |  | 39.7 |
| COc1ccccc1[C@H]1C2=C(CC(C)(C)CC2=O)Nc2n[nH]c(C(F)(F)F)c21 | inactive |  |
| Cc1[nH]nc2c1C(c1ccc(C(F)(F)F)cc1)C1=C(CC(C)(C)CC1=O)N2 (centres undefined) | inactive |  |
| CC(C)c1ccc(-c2nn(-c3ccccc3)cc2/C=N/O)cc1 | inactive |  |
| COc1ccccc1C1C2=C(CC(C)(C)CC2=O)Nc2n[nH]c(C(C)C)c21 (centres undefined) |  | 4.84 |
| Cc1[nH]nc2c1C(c1ccc(C#N)cc1)C1=C(CC(C)(C)CC1=O)N2 (centres undefined) | inactive |  |
| CC1(C)CC(=O)C2=C(C1)Nc1n[nH]c(C(F)(F)F)c1C2c1ccccc1 (centres undefined) |  | 22.2 |
| COc1ccccc1C1C2=C(CC(C)(C)CC2=O)Nc2n[nH]c(C(C)(C)C)c21 (centres undefined) | inactive |  |
| COc1ccc(-c2nn(-c3ccccc3)cc2CO)cc1 | inactive |  |
| Cc1[nH]nc2c1C(C)C1=C(CC(C)(C)CC1=O)N2 (centres undefined) |  | 27.8 |

| SMILES | activity change, negative = inhibition | AC50 [µM] |
| --- | --- | --- |
| CC(C)COc1ccc(-c2nn(-c3ccccc3)cc2/C=N/O)cc1 | inactive |  |
| Cc1[nH]nc2c1C(c1cccc3nonc13)C1=C(CC(C)(C)CC1=O)N2 (centres undefined) |  | 2.57 |
| COc1ccccc1C1C2=C(CC(C)(C)CC2=O)Nc2onc(C)c21 (centres undefined) | inactive |  |
| O/N=C/c1cn(-c2ccccc2)nc1-c1ccccc1 | inactive |  |
| Cc1[nH]nc2c1C(c1ccccc1C(F)(F)F)C1=C(CC(C)(C)CC1=O)N2 (centres undefined) |  | 0.841 |
| CNC(=O)c1cn(-c2ccccc2)nc1-c1ccc(OC)cc1 | inactive |  |
| COc1ccccc1C1C(C(C)=O)=C(C)Nc2n[nH]c(C)c21 (centres undefined) |  | 9.55 |
| Cc1ccccc1C1C2=C(CC(C)(C)CC2=O)Nc2n[nH]c(C)c21 (centres undefined) |  | 16.5 |
| COc1ccccc1C1C2=C(CC(C)(C)CC2=O)Nc2[nH]ncc21 (centres undefined) |  | 5.82 |
| COc1ccc(-c2nn(-c3ccccc3)cc2C(=O)O)cc1 | inactive |  |
| Cc1[nH]nc2c1C(C1CCCCC1)C1=C(CC(C)(C)CC1=O)N2 (centres undefined) | inactive |  |
| CC1(C)CC(=O)/C(=C\c2cccc(F)c2C(F)(F)F)C(=Nc2cc(C(F)(F)F)[nH]n2)C1 | inactive |  |
| Cc1[nH]nc2c1[C@@H](c1ccccc1C(F)(F)F)C1=C(CC(C)(C)CC1=O)N2 |  | 0.461 |
| Cc1[nH]nc2c1C(c1ccccc1C#N)C1=C(CC(C)(C)CC1=O)N2 (centres undefined) |  | 4.04 |
| COc1ccccc1C1C2=C(CC3(CCCCC3)CC2=O)Nc2n[nH]c(C)c21 (centres undefined) |  | 5.88 |
